Test results: publication PMC12042053, “Activation and Allostery in a Fungal SAMHD1 Hydrolase: An Evolutionary Blueprint for dNTP Catabolism” (JACS Au, 2025)

Assays:
Ri SAMHD1 [1] = target: T1, Ri SAMHD1 (Rhizophagus irregularis, UniProt A0A015K8Z8); test: EPR of mixed-valent diiron cofactor; format: binding; conditions: M9-Fe protein 0.5 mM, ascorbate-reduced, 2.5 mM nucleotide, O2-free; active site
T1 construct: gene RirG_017260; full length (no SAM domain), N-terminal His6-tag, pET28a(+), expressed in E. coli T7 Express in M9 medium with Fe or Mn; purified as monomer and tetramer; crystal model residues 11-451

Ri SAMHD1 [2] = target: T1, Ri SAMHD1; test: nucleotide-induced tetramerization, glutaraldehyde cross-linking and SDS-PAGE; format: binding; conditions: monomer, 2 μM, pH 6.5, allosteric
Ri SAMHD1 [3] = target: T1, Ri SAMHD1; test: X-ray crystal structure, […] Å; format: binding; conditions: M9-Mn protein, excess Mn, 5 mM GTP; allosteric site at interface of three subunits; Ca ion bound
Ri SAMHD1 [4] = target: T1, Ri SAMHD1; test: steady-state hydrolysis, HPLC […] nm; format: biochemical; conditions: M9-Fe tetramer, 0.25 μM, 1 mM Mn, 5 mM dithionite, O2-free, fit with substrate/product inhibition, suggested allosteric, second site
Ri SAMHD1 [5] = target: T2, Ri SAMHD1 (Rhizophagus irregularis, UniProt A0A015K8Z8, R42A); test: nucleotide-induced tetramerization, glutaraldehyde cross-linking and SDS-PAGE; format: binding; conditions: monomer, 2 μM, 1 mM Mn, pH 6.5; allosteric, cooperative
T2 construct: gene RirG_017260; full length (no SAM domain), N-terminal His6-tag, pET28a(+), expressed in E. coli T7 Express in M9 medium with Fe or Mn; purified as monomer and tetramer; crystal model residues 11-451
T2 sequence (A0A015K8Z8 entry or part of it R42A): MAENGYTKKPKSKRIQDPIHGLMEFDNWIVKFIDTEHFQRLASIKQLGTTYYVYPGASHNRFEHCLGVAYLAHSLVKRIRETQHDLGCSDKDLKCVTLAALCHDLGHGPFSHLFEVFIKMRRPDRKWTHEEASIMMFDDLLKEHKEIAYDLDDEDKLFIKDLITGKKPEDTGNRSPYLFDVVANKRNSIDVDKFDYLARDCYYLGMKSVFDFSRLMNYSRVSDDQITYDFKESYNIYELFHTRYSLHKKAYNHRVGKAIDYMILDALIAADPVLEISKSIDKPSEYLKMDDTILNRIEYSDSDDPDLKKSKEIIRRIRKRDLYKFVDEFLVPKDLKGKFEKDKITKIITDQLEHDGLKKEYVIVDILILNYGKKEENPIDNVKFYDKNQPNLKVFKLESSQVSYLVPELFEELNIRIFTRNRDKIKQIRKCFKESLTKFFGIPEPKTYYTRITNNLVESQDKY

Ri SAMHD1 [6] = target: T3, Ri SAMHD1 (Rhizophagus irregularis, UniProt A0A015K8Z8, D34A); test: as above; format: binding; conditions: monomer, 2 μM, 1 mM Mn, pH 6.5; allosteric, cooperative
T3 construct: gene RirG_017260; full length (no SAM domain), N-terminal His6-tag, pET28a(+), expressed in E. coli T7 Express in M9 medium with Fe or Mn; purified as monomer and tetramer; crystal model residues 11-451
T3 sequence (A0A015K8Z8 entry or part of it D34A): as the sequence (A0A015K8Z8 entry or part of it R42A) above, with D34A, A42R counted along it

[7] = target: SAMHD1 protein from Rhizophagus irregularis, wild type (Rhizophagus irregularis)
purified protein = substrate: Nc1nc2c(ncn2[C@H]2C[C@H](O)[C@@H](COP(=O)(O)OP(=O)(O)OP(=O)(O)O)O2)c(=O)[nH]1; test: purified protein; format: biochemical, Rhizophagus irregularis; conditions: M9-Fe tetramer, 0.25 μM, 1 mM Mn, 5 mM dithionite, O2-free; fit with substrate/product inhibition

Nc1ncnc2c1ncn2[C@H]1C[C@H](O)[C@@H](COP(=O)(O)OP(=O)(O)OP(=O)(O)O)O1 [dATP]
EPR of mixed-valent diiron cofactor (Ri SAMHD1 [1]): Addition of nonguanine-containing dNTPs (dATP, dCTP, and dTTP) increased the signal rhombicity

Cc1cn([C@H]2C[C@H](O)[C@@H](COP(=O)(O)OP(=O)(O)OP(=O)(O)O)O2)c(=O)[nH]c1=O [dTTP]
EPR of mixed-valent diiron cofactor (Ri SAMHD1 [1]): Addition of nonguanine-containing dNTPs (dATP, dCTP, and dTTP) increased the signal rhombicity

Nc1ccn([C@H]2C[C@H](O)[C@@H](COP(=O)(O)OP(=O)(O)OP(=O)(O)O)O2)c(=O)n1 [dCTP]
EPR of mixed-valent diiron cofactor (Ri SAMHD1 [1]): Addition of nonguanine-containing dNTPs (dATP, dCTP, and dTTP) increased the signal rhombicity

Nc1nc2c(ncn2[C@@H]2O[C@H](COP(=O)(O)OP(=O)(O)OP(=O)(O)O)[C@@H](O)[C@H]2O)c(=O)[nH]1 [GTP]
EC50 (Ri SAMHD1 [2]; Mn): 31 ± 2 µM | X-ray crystal structure, 2.27 Å (Ri SAMHD1 [3]): only one nucleotide (GTP) is positioned within the interface of three subunits

Nc1nc2c(ncn2[C@H]2C[C@H](O)[C@@H](COP(=O)(O)OP(=O)(O)OP(=O)(O)O)O2)c(=O)[nH]1 [dGTP]
apparent KI (Ri SAMHD1 [4]): 301 ± 24 µM | EC50 (Ri SAMHD1 [2]; 1 mM Mn): 21 ± 3 µM | EC50 (Ri SAMHD1 [5]): 605 ± 9 µM | EC50 (Ri SAMHD1 [6]): 235 ± 5 µM

SAMHD1 protein from Rhizophagus irregularis, wild type (enzyme)
apparent dNTP hydrolysis rates of the monomeric form on addition of GTP [7]: < 2.4 fold

B1: Ri SAMHD1 (Rhizophagus irregularis DAOM 197198w) (protein)
chain: MAENGYTKKPKSKRIQDPIHGLMEFDNWIVKFIDTEHFQRLRSIKQLGTTYYVYPGASHNRFEHCLGVAYLAHSLVKRIRETQHDLGCSDKDLKCVTLAALCHDLGHGPFSHLFEVFIKMRRPDRKWTHEEASIMMFDDLLKEHKEIAYDLDDEDKLFIKDLITGKKPEDTGNRSPYLFDVVANKRNSIDVDKFDYLARDCYYLGMKSVFDFSRLMNYSRVSDDQITYDFKESYNIYELFHTRYSLHKKAYNHRVGKAIDYMILDALIAADPVLEISKSIDKPSEYLKMDDTILNRIEYSDSDDPDLKKSKEIIRRIRKRDLYKFVDEFLVPKDLKGKFEKDKITKIITDQLEHDGLKKEYVIVDILILNYGKKEENPIDNVKFYDKNQPNLKVFKLESSQVSYLVPELFEELNIRIFTRNRDKIKQIRKCFKESLTKFFGIPEPKTYYTRITNNLVESQDKY
notes: full length (no SAM domain), N-terminal His6-tag, pET28a(+), expressed in E. coli T7 Express in M9 medium with Fe or Mn; purified as monomer and tetramer; crystal model residues 11-451
Km (purified protein): 11 ± 3 µM
